# Source: US20070155771A1, “Methods and means for treating protein conformational disorders” (priority 2003, published 2007)
# Key:
# [1] = test system: COS-7 cells expressing an exon 1 fragment of the HD gene with 74 glutamines (Q74); test: Aggregate formation and abnormal cell nuclei in transiently transfected COS-7 cells expressing Q74; type: cell-based, African green monkey; conditions: 48 hours after transfection
# From the text: (§1) Mammalian expression vectors comprising EGFP (pEGFP-C1, Clontech) fused at its C-terminus with a Huntington's Disease gene exon 1 fragment with 74 polyglutamine repeats (Q74) or a polyalanine stretch of 19 repeats (A19) were used (Rankin, J. et al (2000) Biochem. J., 348, 15-19; Narain, Y. et al (1999) J. Med. Genet., 36, 739-746.). A Haemagglutinin-tagged Huntington's Disease gene exon 1 fragment with 74 polyglutamine repeats in pHM6 vector (Q74-HA) was also used. The PC12 stable lines expressing exon 1 of Huntington gene were as described in Wyttenbach A. et al., (2001) Hum. Mol. Genet. 10 1829-45.
# (§2) African green monkey kidney cells (COS-7) were grown in Dulbecco's Modified Eagle Medium (DMEM, Sigma) supplemented with 10% Fetal Bovine Serum (FBS), 100 U/ml Penicillin/Streptomycin, 2 mM L-Glutamine and 1 mM Sodium Pyruvate at 37° C., 5% Carbon dioxide. The cells were grown on coverslips in six-well plates for immunofluorescence analysis, or were directly grown in six-well plates to 60-80% confluency for 24 hours for western blot analysis. Transfection was done using LipofectAMINE reagent (Invitrogen) using the manufacturer's protocol. The transfection mixture was replaced by normal culture medium after 5 hours incubation at 37° C. and the transfected cells were analysed by immunofluorescence or immunoblot 48 hours after transfection. The cells were left untreated or treated with 10 mM 3-methyl adenine (3-MA, Sigma), 0.5 mM N^6, N^6, Dimethyl adenosine (DMA, Sigma), 0.2 μg/ml Rapamycin (Sigma), 200 nM Bafilomycin A1 (BafA1, Sigma), 10 μM Lactacystin (Sigma) or 10 μM epoxomicin (Affinity research products ltd.) for 15 hours before fixation for immunofluorescence or processing for western blots. DMA, BafA1, epoxomicin and rapamycin were dissolved in DMSO and 3-MA and lactacystin were in water. Equal amounts of water or DMSO were added to the untreated controls, where relevant. The cells on coverslips were rinsed with 1×PBS, fixed with 4% paraformaldehyde in 1×PBS for 20 min and mounted in antifadent supplemented with 4′,6-diamidino-2-phenylindole (DAPI, 3 μg/ml, Sigma) to allow visualisation of nuclear morphology. The PC12 stable cells were maintained at 75 μg/ml hygromycin in standard medium consisting of high glucose DMEM (Sigma) with 100 U/ml penicillin/streptomycin, 2 mM L-glutamine (Invitrogen), 10% heat-inactivated horse serum (Invitrogen), 5% Tet-approved fetal bovine serum (FBS) (Clontech) and 100 μg/ml G418 (Invitrogen) at 37° C., 10% CO2. The cells were seeded at 1-2×10^5 per well in 6-well plates and were induced with 1 μg/ml doxycycline (Sigma) for 8 hours. The expression of transgenes was switched off by removing doxycycline from the medium. Cells were either left untreated or treated with 3-MA, BafA1, epoxomicin, lactacystin, rapamycin, 10 μg/ml cycloheximide (Sigma) or cycloheximide+rapamycin at the concentrations specified above for 24, 48 or 72 hours and the medium with the inhibitors/activator changed every 24 hours. The cells were then scraped off from the wells into 1.5 ml eppendorf tubes, pelleted at 8000 rpm and washed twice with 1×PBS. They were either fixed with 4% paraformaldehyde for 20 minutes and mounted in DAPI over coverslips on glass slides or processed for western blot analysis. CCI-779 was supplied by Wyeth Pharmaceuticals (Philadelphia). For tissue culture experiments, a stock solution of 1M in ethanol was prepared the day of experiment and was diluted in the appropriate medium
# (§3) The pellets for westerns from COS-7 or PC12 cells were lysed on ice in Laemmli buffer (62.5 mM Tris-HCl pH6.8, 5% β-mercaptoethanol, 10% glycerol, and 0.01% bromophenol blue) for 30 min in the presence of protease inhibitors (Roche Diagnostics). The lysates were subjected to SDS-PAGE (10%) electrophoresis and proteins transferred onto nitrocellulose membrane (Amersham Pharmacia Biotech). […]
# [2] = test system: COS-7 cells expressing EGFP fused to 19 alanines (A19); test: Aggregate formation and abnormal cell nuclei in transiently transfected COS-7 cells expressing A19; type: cell-based, African green monkey; conditions: immunofluorescence; 48 hours after transfection; drug 15 hours
# From the text: as §1, §2, §3
# [3] = test system: PC12 cell line expressing EGFP-tagged HD exon 1 with Q74; test: Turnover of Q74 protein and aggregates in stable doxycycline-inducible PC12 cells after switching expression off; type: cell-based, rat
# Procedure: as §2
# The pellets for westerns from COS-7 or PC12 cells were lysed on ice in Laemmli buffer (62.5 mM Tris-HCl pH6.8, 5% β-mercaptoethanol, 10% glycerol, and 0.01% bromophenol blue) for 30 min in the presence of protease inhibitors (Roche Diagnostics). The lysates were subjected to SDS-PAGE (10%) electrophoresis and proteins transferred onto nitrocellulose membrane (Amersham Pharmacia Biotech). The primary antibodies used include mouse monoclonal anti-GFP antibody (8362-1, Clontech) at 1:2000, rabbit monoclonal anti-actin antibody (A2066, Sigma) at 1:3000, mouse monoclonal anti-tubulin antibody (Clone DM 1A, Sigma) at 1:1000 and mouse monoclonal anti-HA antibody (Covance) at 1:1000. Blots were probed with Horse Radish Peroxidase (HRP) conjugated anti-mouse or anti-rabbit IgG (Bio Rad) at 1:2000. Bands were visualised using the ECL detection reagent (Amersham). […]
# [4] = test system: human wild-type, A30P and A53T α-synuclein; test: α-Synuclein degradation in inducible PC12 cell lines (western blot), all forms; type: cell-based
# From the text: Human α-synuclein with a HA tag at the N-terminus and a 6His tag at the C-terminus was amplified from pHM6α-synuclein constructs (Furlong, R. A. et a; 1 (2000) Biochem. J. 346, 577581) and inserted into pTRE2 hyg vector (Clontech) using Nhe I/Sal I sites. Constructs were confirmed by sequencing before use. The pTRE2 hygα-synuclein construct and pTettTS (Clontech) were cotransfected into PC12 TetOn cells (Clontech), using Lipofectamine (Invitrogen) and Plus Reagent (Invitrogen). Single colonies were isolated using cloning cylinders (Sigma) and cells were grown and tested for α-synuclein expression upon induction. Cell lines were subjected to a further round of purification from single colonies to ensure that lines were pure.
# PC12 cells were grown in Dulbecco's modified eagle's medium (DMEM, Sigma) supplemented with 10% horse serum (Sigma), 5% fetal bovine serum (Sigma), 100 U/ml penicillin/streptomycin, 2 mM L-glutamine, […] G418 (Invitrogen) and […] hygromycin B (Calbiochem) at 37° C., 10% CO2. To induce differentiation, cells were grown in media containing 1% horse serum and 100 ng/ml nerve growth factor (2.5S, Upstate Biotechnology) and incubated for about 5 days. Cells were induced to express synuclein with […] doxycycline (Sigma).
# Cells were induced for 24 hours and then washed twice with media to remove doxycycline. Then cells were incubated in […] media containing either 10 mM 3-methyladenine (3MA, Sigma), 200 nM bafilomycin A1 (Sigma), […] rapamycin (Sigma), […] lactacystin (Sigma), […] epoxomicin (Affinity Research Products Ltd) or carrier controls (water or DMSO (Sigma)). 3MA and lactacystin were made up in water and rapamycin, epoxomicin and bafilomycin were dissolved in DMSO.
# After 24 hours the media was replaced with fresh media plus drug and after a further 24 hours cell pellets were collected and stored at −80° C. until required.
# Cell pellets were collected and stored at −80° C. until needed. Cells were lysed on ice in lysis buffer: 1% TritonX100, 20 mM TRIS pH7.5, 137 mM NaCl, 1 mM EGTA, 10% glycerol, 1.5 mM MgCl2 and protease inhibitor cocktail (Complete, Roche).
# Samples were then mixed with loading buffer: 62.5 mM TRIS pH 6.8, 2% SDS, 10% glycerol, 0.05% bromophenol blue, 100 mM dithiothreitol and 700 mM β-mercaptoethanol and boiled before loading onto 14% denaturing polyacrylamide gels.
# Each lane was loaded with protein from a similar number of cells, based on cell counting at the time of seeding. Proteins were transferred onto Hybond ECL nitrocellulose membrane (Amersham). α-Synuclein was detected with an antiHA monoclonal antibody (Covance) at 1:1000 dilution with 4-18 hours incubation. HRP conjugated antimouse antibody (Amersham) at 1:2000 dilution was then added to blots and antibody was detected using ECL blotting reagents (Amersham) and Hyperfilm ECL (Amersham). Blots were stripped and then reprobed for α-tubulin (Sigma) at 1:1000 dilution.
# PC12 cell lines as described above (i.e. mitotic and neuronally differentiated wild-type, A53T and A30P PC12 lines) were induced for 24 hours, then doxycycline was removed and the drugs were added for 48 hours. The trends we observed were similar in cells treated with drugs for 24 and 72 hours.
compound,measurement,setting,value
"CN(C)c1ncnc2c1ncn2[C@@H]1O[C@H](CO)[C@@H](O)[C@H]1O [DMA, N^6,N^6-dimethyladenosine]","appearance (size, number) of Q74 aggregates in cells with aggregates","[1]; immunofluorescence, drug 15 hours",Identical aggregate phenotypes
same,"appearance (size, number) of A19 aggregates in cells with aggregates",[2],Identical aggregate phenotypes
C[C@@H]1C[C@@H]([C@H](O)CC2CC(=O)NC(=O)C2)C(=O)[C@@H](C)C1 [cycloheximide],cell fluorescence (EGFP-Q74 clearance),"[3]; 8 h ON then 72 h OFF with drug, 0.2 μg/ml rapamycin, 10 μg/ml cycloheximide",increased
same,numbers of aggregate containing cells / visible aggregates,"[3]; 8 h ON then 72 h OFF with drug, vs time-matched control",increased
CC(=O)N[C@@H](CSC(=O)[C@]1([C@@H](O)C(C)C)NC(=O)[C@H](C)[C@@H]1O)C(=O)O [lactacystin],proportions of Q74-expressing cells with aggregates,"[1]; drug for 15 hours before fixing: 10 mM 3-MA, 0.5 mM DMA, 200 nM BafA1, 0.2 μg/ml rapamycin, 10 μM epoxomicin, 10 μM lactacystin, vs untreated",increases
same,number of aggregate-containing cells,"[3]; 8 h ON then 48 h OFF with 10 μM epoxomicin or 10 μM lactacystin, vs control",increased Q74 aggregation
same,cell death or overt aggregate formation,[4],did not cause increased cell death or overt aggregate formation
same,α-synuclein levels,"[4]; induced 24 hours, doxycycline removed, drug 48 hours, cycling and differentiated cells, 0.2 mg/ml rapamycin, 10 mM lactacystin, 10 mM epoxomicin [sic]",increase
